Non-standard residues stand in square brackets, D forms with d. No end group written: not given here. NMeL = CN[C@@H](CC(C)C)C(=O)O
Legend:
human monocytes [1] = test: Differentiation of human peripheral blood monocytes (morphology); format: cell-based; details: 50 μg/ml, 48 hrs
Excerpt: EP67 Differentiates Human Peripheral Blood Monocytes to Cells with Phenotypes Characteristic of Macrophages/DCs.

[2] = system: human monocyte-derived macrophages and DCs; test: Cytokine release from human macrophages and DCs; format: cell-based; details: 50 μg/ml, after 24 hours of incubation
Protocol: Human monocyte-derived macrophages and DCs were incubated with EP67 (50 μg/ml) and scrambled EP67 (50 μg/ml) for 6 and 24 hours. Supernatants were collected and analyzed for the presence of the following cytokines: IL-1beta, IL-2, IL-4, IL-6, IL-10, IL-12p70, IL-13, IL-15, TNF-alpha, and IFN-gamma. […] It is worth noting that the prominent cytokines released at 6 and 24 hours in response to EP67 (IL-1beta, IL-2, IL-6, and TNF-alpha) represent a TH1/pro-inflammatory bias relative to the TH2/anti-inflammatory cytokines (IL-4, IL-5, IL-10, and IL-13). This TH1 bias is in keeping with earlier observations with EP67 and is an important immunologic component for an effective immune response to T. gondii.

[3] = system: bone marrow-derived BALB/c DCs; test: Murine dendritic cell activation (cytokine release) by EP67 vaccines; format: cell-based, mouse; details: 6 hr exposure
Excerpt: A subset of vaccines were developed with murine DC's from BALB/c bone marrow, and examined for cytokine response. […] Bone marrow-derived BALB/c DCs were separately exposed to EP67-containing vaccines #1 (TgSAG1) and #2 (TgGRA1) (Example 3), and compared to sham exposure (media). […] KC/GRO, also known as CXCL1, is a potent neutrophil chemotactic cytokine. Increases in INF-gamma, IL-1b, and TNF-α were also observed, and are in-line with expectations of EP67 engagement of the C5a receptor and subsequent activation of dendritic cells.

DCs = test: Surface activation markers of exposed dendritic cells by flow cytometry; format: cell-based, mouse; details: 6 hours exposure
Protocol: […] vaccines were investigated and found to increase surface activation markers of exposed white blood cells, such as DCs shown in FIG. 10, which were exposed for 6 hours to Vaccines #1 (TgSAG1) and #2 (TgGRA1). Following exposure, cells were fixed and stained with antibodies to measure cell surface markers of intact cells by flow cytometry.

[4] = system: human monocytes and monocyte-derived dendritic cells; test: Multiplex cytokine release from human monocytes and monocyte-derived dendritic cells (EP67 analogues); format: cell-based; details: 50 μg/ml, 6 and 24 hours
Excerpt: Cytokine Analysis. Considerable time was spent in learning the methods for the rapid, efficient, and high throughput method of cytokine analysis using a multiplex instrument for large panels of cytokines (MesoScale QuickPlex SQ 120). With this instrument, we tested the EP67- and analogue-mediated release of a pro-inflammatory and anti-inflammatory panel of cytokines (IL-1beta, IL-2, IL-4, IL-6, IL-10, IL-12p70, IL-13, IL-15, TNF-α, and IFN-gamma) from human monocytes and monocyte-derived dendritic cells over the course of 6 and 24 hours of exposure 50 μg/ml EP67, scrambled EP67 (scEP67), and EP67 analogues (EP144, EP146, and EP147).

[5] = system: bone marrow-derived mouse dendritic cells; test: qPCR detection of cytokine expression following exposure to EP67; format: cell-based; details: EP67 50 μg/ml, 24 hrs, vs PBS controls, normalized to Actin B
Protocol: Free EP67 (unattached to any epitope) was used as a control to stimulate murine bone marrow-derived dendritic cells (See Table 1 below). […] Testing these and additional cytokines (at the gene and protein-expression levels) against all of the synthesized and control vaccines is carried out. Similarly, we will also be analyzing surface marker expression indicative of DC activation.
EP67 (50 μg/ml) was incubated with bone marrow-derived mouse dendritic cells (24 hrs) following in vitro maturation. Fold changes in expression were compared to PBS controls and normalized to Actin B gene expression. Three replicates were analyzed per gene. […] A positive control, bacterial LPS, was also evaluated and produced upregulation of at least 20-fold above PBS controls for all evaluated cytokines.

human monocytes [6] = test: Surface marker immunophenotype of human monocytes incubated with EP67; format: cell-based; details: 50 μg/ml, over 7 days
Protocol: EP67 Differentiates Human Peripheral Blood Monocytes to Cells with Immunophenotypes Characteristic of Macrophages/DCs. Human monocytes were incubated with EP67 (50 μg/ml) and surface markers analyzed over the course of 7 days.

murine splenocytes = test: Cytokine release from murine splenocytes; format: cell-based, mouse; details: 50 μg/ml
Protocol: Splencocytes were obtained from normal Balb/c mice (ca. 2 months) and aged (ca. 17 months) sentinel mice of undetermined background (a gift from the University of Nebraska Medical Center Animal Facility). Spelocytes were cultured in the presence of EP67 and scrambled EP67 (50 μg/ml) for 24 hours, supernatants harvested, and analyzed for the presence of IL-1beta, IL-2, IL-4, IL-5, IL-6, KC/GRO, IL-10, IL-12p70, TNF-alpha, and IFN-gamma. […] Splenocytes were not our original choice of APCs from mice to evaluate the effects of EP67/EP67-based vaccines, but they were chosen for this first assessment as a matter of convenience to help with getting our cell culture protocols and assays established and verified.

RAW 264.7 cells = test: TNF-alpha and IL-6 secretion from RAW 264.7 cells; format: cell-based, mouse; details: 6 hr and 24 hr exposures
Protocol: Although murine work was achieved using commercially available BALB/c cells, we felt it useful to explore additional cell options for in vitro evaluation of EP67 vaccine candidates. […] FIGS. 13A and 13B show the results of RAW 264.7 cells activated by EP67. In order to evaluate a cell line that is responsive to both EP67 and C5a (the complement protein from which the sequence of EP67 is derived), RAW 264.7 were tested for secretion of TNF-a and IL-6. For both cytokines, supernatants from both 6 hr and 24 hr exposures of recombinant C5a were high.

Row | Molecule | conversion of monocytes into elongated, adhered macrophage/DC-like cells (human monocytes [1]) | release of IL-1beta, IL-2, IL-6, IFN-gamma, and TNF-alpha [2] | INF-gamma, IL-1b, and TNF-α release [3] | cytokine release compared to sham (media) [3] | CD80, CCR7, and MHC Class II molecules compared to control (media only) (DCs) | secretion of TNF-a and IL-6 (RAW 264.7 cells) | other results
1 | (MeL)RMYKPaFDS ([NMeL]RMYKP[dA]FDS) [scrmbEP67, reference compound] | not | not |  |  |  |  | 
2 | EEVIDTMKSMQRDEERRYSFKDMP(MeL)aR (EEVIDTMKSMQRDEERRYSFKDMP[NMeL][dA]R; not fully specified; printed as EEVIDTMKSMQRDEERRYSFKDMP(MeL)aR) [Vaccine 2] |  |  | Increases | cytokine release above the controls | Elevation occurred |  | CD80 increase compared to control (media only) (DCs): > 80%
3 | SFKDILPKLSENPWQRRYSFKDMP(MeL)aR (SFKDILPKLSENPWQRRYSFKDMP[NMeL][dA]R; not fully specified; printed as SFKDILPKLSENPWQRRYSFKDMP(MeL)aR) [Vaccine 1] |  |  | Increases | cytokine release above the controls | Elevation occurred |  | 
4 | YSFKDM(Cha)LaR [EP147] |  |  |  |  |  |  | cytokine release (pro- and anti-inflammatory panel) [4]: increase in cytokine release
5 | YSFKDMP(MeL)aR (YSFKDMP[NMeL][dA]R; not fully specified; printed as YSFKDMP(MeL)aR) [EP67] | converts rounded and non-adhered monocytes into elongated, adhered cells | induced the release |  |  |  | statistically significant (p<0.05) increases | Fold change CXCL1 (a.k.a. KC) expression [5]: 1.61 fold; Fold change IL-6 expression [5]: 3.40 fold; Fold change IL-10 expression [5]: 4.13 fold; Fold change TNF alpha expression [5]: 2.14 fold; expression of CD14, CD16, CD11b, and CD33 (human monocytes [6]): moderately enhanced; expression of CD80 and CD206 (human monocytes [6]): significantly enhanced; cytokine release relative to controls, aged sentinel mice splenocytes (murine splenocytes; aged ca. 17 months): more pronounced effect; cytokine release relative to controls, Balb/c splenocytes (murine splenocytes; normal Balb/c mice ca. 2 months): little effect
6 | recombinant C5a: the complement protein from which the sequence of EP67 is derived (protein, UniProt P01031 678-751, looked up, C5a anaphylatoxin) C5a anaphylatoxin: TLQKKIEEIAAKYKHSVVKKCCYDGACVNNDETCEQRAARISLGPRCIKAFTECCVVASQLRANISHKDMQLGR |  |  |  |  |  | high | 
